Experiments:
HLA-C*14:03 = HLA-C*14:03 (Homo sapiens, UniProt P10321, A176E/A330V/A35S/A97T/C350S/D114A/D33S/L171W/L180R/L218V/M285V/M309V/M331V/P208H/Q277E/Q291P/R121W/R243W/R45H/S123F/S297R/S48A/T329A/T363A/V319A); assay: HLA stabilization assay on RMA-S-C1403 cells; format: cell-based; conditions: for relative affinity in hierarchy of peptide-HLA-C*14 binding (HLA-C*14:03): peptide concentrations from 0.1 to 100 μM, 6 epitope peptides compared; for binding to HLA-C*14:03 (stabilization of surface HLA expression): 100 μM peptide, 26°C 1 h then 37°C 3 h, MAb DT-9 staining, flow cytometry, triplicate assays
Excerpt: (§1) We next sought to confirm the HLA-C*14:02/C*14:03 restriction of the HIV-1 peptides identified by LC-MS/MS. First, we tested their ability to bind to HLA-C*14:02 or HLA-C*14:03 using HLA stabilization assays. Of the 25 HIV-1 peptides, three Env peptides, Env SI8, Env AM11, and Env VM9, are located in variable regions V2 and V3. In addition, Pol AF10, Pol PF8, Pol VWL9, and Env YI9 are located in regions where high sequence variation is reported in the LANL database. Therefore, we excluded these peptides from further analysis. The other 18 peptides were synthesized and tested for binding to HLA-C*14:02/C*14:03 by analyzing their ability to stabilize surface HLA expression on TAP-defective RMA-S cell lines expressing HLA-C*14:02 (RMA-S-C1402) or HLA-C*14:03 (RMA-S-C1403). These RMA-S cell lines express equivalent levels of HLA-C*14:02 and HLA-C*14:03 on the cell surface at 26°C, and surface HLA expression declines to very low levels when the cells are warmed to 37°C in the absence of exogenously added stabilizing peptides (Fig. 2A). Peptide binding was determined by evaluating whether HLA-I expression was stabilized in the presence of 100 μM peptide.
(§2) FIG 2 HLA-C*14:02/14:03 binding of HIV-1 peptides eluted from NL4-3-infected .221-C1402 and .221-C1403 cells as assessed by HLA stabilization assay using RMA-S cell lines. (A) Histogram plots showing surface expression of HLA-C*14:02 or HLA-C*14:03 on RMA-S-C1402 or RMA-S-C1403 cells at 26°C and after cells cultured at 26°C had been warmed to 37°C for 3 h. MFI values of cells cultured at 26°C were 27.4 for HLA-C*14:02 and 28.1 for HLA-C*14:03. MFI values of cells cultured at 37°C for 3 h were 5.0 for HLA-C*14:02 and 6.54 for HLA-C*14:03. (B) Analysis of binding of 14 HIV-1 NL4.3 peptides identified by LC-MS/MS to HLA-C*14:02 (blue) or HLA-C*14:03 (red) as measured in HLA class I stabilization assays using RMA-S-C1402 or RMA-S-C1403 cells. (C) Analysis of binding of 9 additional variant peptides to HLA-C*14:02 (blue) or C*14:03 (red). For panels B and C, peptides were tested at a concentration of 100 μM. Results are plotted as percent surface HLA-I expression relative to that at 26°C, calculated as the ratio of the MFI of peptide-pulsed RMA-S-C1402 or RMA-S-C1403 cells to that of control (non-peptide-pulsed) cells kept at 26°C, multiplied by 100. Means and standard deviations (SDs) from triplicate assays are shown. Statistical analyses were performed by unpaired t test. The P values were corrected for multiple testing. *, P < 0.05 and q < 0.05; **, P < 0.01 and q < 0.03; ***, P < 0.001 and q < 0.005.
(§3) The relative affinity of peptide binding to HLA-C*14:02 and -C*14:03 was examined using RMA-S-C1402 and RMA-S-C1403 cells as previously described ([15]). Briefly, RMA-S cells were cultured at 26°C for 16 h, pulsed with peptides at 26°C for 1 h, and subsequently incubated at 37°C for 3 h. Staining of cell surface HLA-C molecules was performed with the HLA-C-reactive monoclonal antibody (MAb) DT-9 ([48]), a gift from Mary Carrington, NIH, and fluorescein isothiocyanate (FITC)-conjugated sheep anti-mouse IgG (Jackson ImmunoResearch). Staining data were acquired on a FACSCanto II instrument (BD Biosciences) and analyzed using FlowJo 10.7.1 software. Relative HLA expression was calculated as the ratio of the mean fluorescence intensity (MFI) of peptide-pulsed RMA-S-C1402 cells or RMA-S-C1403 cells to that of control (non-peptide-pulsed) cells kept at 26°C, multiplied by 100 to express the values for peptide-pulsed cells as a percentage of that for the control cells at 26°C.

[1] = test system: PBMCs from HIV-1-infected HLA-C*14:02+ or HLA-C*14:03+ individuals; assay: ex vivo IFN-γ ELISPOT assay; format: cell-based, human; conditions: for Responder (number), 1402+: 30 HLA-C*14:02+ treatment-naive individuals; for Responder (number), 1402+ / Responder (number), 1403+: positive >100 spots/10^6 PBMCs; for Responder (number), 1403+: 30 HLA-C*14:03+ treatment-naive individuals; for frequency of individuals showing responses of >100 spot-forming cells/10^6 PBMCs: 60 HLA-C*14:02/C*14:03 treatment-naive individuals (30 + 30)
HLA-C*14:02 = HLA-C*14:02 (Homo sapiens, UniProt P10321, A176E/A330V/A35S/A97T/C350S/D114A/D33S/L171W/L180R/L218V/M285V/M309V/M331V/P208H/Q277E/Q291P/R121W/R243W/S123F/S297R/S48A/T329A/T363A/V319A); assay: HLA stabilization assay on RMA-S-C1402 cells; format: cell-based; conditions: for relative affinity in hierarchy of peptide-HLA-C*14 binding (HLA-C*14:02): peptide concentrations from 0.1 to 100 μM, 6 epitope peptides compared; for binding to HLA-C*14:02 (stabilization of surface HLA expression): 100 μM peptide, 26°C 1 h then 37°C 3 h, MAb DT-9 staining, flow cytometry, triplicate assays
Excerpt: as §1, §2, §3

Row | Sequence | Responder (number), 1402+ ([1]; 1 μM peptide) | Responder (number), 1403+ ([1]; 1 μM peptide) | frequency of individuals showing responses of >100 spot-forming cells/10^6 PBMCs ([1]; 1 μM peptide) [%] | binding to HLA-C*14:03 (stabilization of surface HLA expression) (HLA-C*14:03) | binding to HLA-C*14:02 (stabilization of surface HLA expression) (HLA-C*14:02) | other results
1 | AFHHVAREL [Nef AL9] | 2 | 1 | 5 |  |  | relative affinity in hierarchy of peptide-HLA-C*14 binding (HLA-C*14:03) (HLA-C*14:03): lowest; relative affinity in hierarchy of peptide-HLA-C*14 binding (HLA-C*14:02) (HLA-C*14:02): lowest
2 | FMTKALGI [Tat FI8, HIV-1 NL4-3 Tat 38–45 peptide FMTKALGI] |  |  |  | did not exhibit detectable binding | did not exhibit detectable binding | 
3 | YFPDWQNYT [Nef YT9] | 12 | 7 | 31 |  |  | 
4 | FLGAAGSTM [Env FM9, HIV-1 NL4-3 Env 522–530 peptide …] |  |  |  | did not exhibit detectable binding | did not exhibit detectable binding | 
5 | RFDSRLAF [Nef RF8, HIV-1 NL4-3 Nef 184–191 peptide RFDSRLAF] |  |  |  | did not exhibit detectable binding | did not exhibit detectable binding | 
6 | IYHTQGYF [Nef IF8] | 6 | 6 | 20 |  |  | 
7 | KYHSNWRAM [Pol KM9] | 4 | 0 | 6.6 |  |  | magnitude of T cell responses, compared between groups ([1]; 60 individuals, HLA-C*14:02+ versus HLA-C*14:03+ (or Gag versus Pol/Nef epitopes), Mann-Whitney test): significantly higher
8 | LYNTIAVLY [Gag LY9] | 6 | 5 | 18 |  |  | number of individuals with response, of 60 HLA-C*14+ Japanese individuals ([1]; 1 μM peptide, relatively strong responses): 11
9 | FFREDLAF [Pol FF8, HIV-1 NL4-3 Pol 1–8 peptide FFREDLAF] |  |  |  | low | low | 
10 | AFSPEVIPM [Gag AM9] | 16 | 18 | 56 |  |  | relative affinity in hierarchy of peptide-HLA-C*14 binding (HLA-C*14:03) (HLA-C*14:03): highest; relative affinity in hierarchy of peptide-HLA-C*14 binding (HLA-C*14:02) (HLA-C*14:02): highest
11 | ASGYIEAEV [Pol AV9, HIV-1 NL4-3 Pol 795–803 peptide …] |  |  |  | did not exhibit detectable binding | did not exhibit detectable binding | 
12 | VYYDPSKDL [Pol VYL9, HIV-1 NL4-3 Pol 472–480 peptide …] |  |  |  | low | low | 
